# Assay results as given in patent publication US9422285B2, “Substituted pyrazolo[1,5-A]-pyridine-3-carboxamides and use thereof” (Bayer Pharma Aktiengesellschaft, priority 2014, dated 2016).
# Structures can show the parent of a compound that is named as a salt.
# Target: T1, recombinant guanylate cyclase reporter cell line (Rattus norvegicus, UniProt P19686+P20595)
# T1 construct: expressed in transfected cells
# T1 sequence (P19686 1-690): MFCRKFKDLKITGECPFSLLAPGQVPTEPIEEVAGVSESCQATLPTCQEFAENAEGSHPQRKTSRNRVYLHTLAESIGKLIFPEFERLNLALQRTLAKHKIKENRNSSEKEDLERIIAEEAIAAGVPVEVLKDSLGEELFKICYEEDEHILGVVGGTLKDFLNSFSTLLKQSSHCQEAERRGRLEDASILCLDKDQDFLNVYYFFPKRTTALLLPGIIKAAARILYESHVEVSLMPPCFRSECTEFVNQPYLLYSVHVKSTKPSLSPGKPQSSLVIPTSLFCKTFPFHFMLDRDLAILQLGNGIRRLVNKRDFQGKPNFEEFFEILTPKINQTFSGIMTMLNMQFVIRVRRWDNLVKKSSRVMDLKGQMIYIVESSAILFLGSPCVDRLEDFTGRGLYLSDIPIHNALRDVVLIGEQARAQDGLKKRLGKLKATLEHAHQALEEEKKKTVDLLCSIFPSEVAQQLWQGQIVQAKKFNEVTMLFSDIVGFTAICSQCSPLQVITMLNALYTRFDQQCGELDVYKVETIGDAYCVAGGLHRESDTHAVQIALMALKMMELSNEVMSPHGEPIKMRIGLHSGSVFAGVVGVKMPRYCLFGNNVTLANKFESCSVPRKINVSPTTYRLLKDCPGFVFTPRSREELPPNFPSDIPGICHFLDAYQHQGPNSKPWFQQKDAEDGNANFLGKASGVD
# T1 sequence (P20595 1-619): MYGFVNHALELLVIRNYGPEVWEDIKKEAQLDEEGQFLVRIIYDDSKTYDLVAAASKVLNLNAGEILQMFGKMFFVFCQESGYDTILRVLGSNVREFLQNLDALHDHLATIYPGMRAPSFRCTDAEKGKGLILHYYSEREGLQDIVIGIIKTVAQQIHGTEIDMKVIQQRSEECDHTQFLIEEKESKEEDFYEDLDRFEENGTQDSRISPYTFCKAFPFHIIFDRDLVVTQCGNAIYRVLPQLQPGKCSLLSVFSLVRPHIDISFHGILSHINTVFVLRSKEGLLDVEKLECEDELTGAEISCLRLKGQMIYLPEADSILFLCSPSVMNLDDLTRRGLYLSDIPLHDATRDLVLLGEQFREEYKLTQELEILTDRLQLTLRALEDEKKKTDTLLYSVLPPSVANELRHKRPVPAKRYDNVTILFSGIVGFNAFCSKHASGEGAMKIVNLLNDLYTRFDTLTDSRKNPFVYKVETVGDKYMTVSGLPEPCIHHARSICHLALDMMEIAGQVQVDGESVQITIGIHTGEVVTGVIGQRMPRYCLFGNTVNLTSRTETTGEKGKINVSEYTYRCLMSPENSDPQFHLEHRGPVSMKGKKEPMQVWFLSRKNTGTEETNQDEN
# Test: Effect on a recombinant guanylate cyclase reporter cell line (B-2)
# Type: cell-based
# Conditions: in some cases mean values for individual determinations
# Method: B-2. Effect on a Recombinant Guanylate Cyclase Reporter Cell Line
# The cellular effect of the inventive compounds is determined using a recombinant guanylate cyclase reporter cell line, as described in F. Wunder et al., Anal. Biochem. 339, 104-112 (2005).
# Representative MEC values (MEC=minimum effective concentration) for the inventive compounds are shown in the table below (in some cases as mean values for individual determinations): […]
row,SMILES,MEC (minimum effective concentration) [µM]
1,"Cc1cc(OCc2c(F)cccc2F)n2nc(C)c(C(=O)NNC(=O)CN3CCCCC3)c2c1 [Example 174, 7-[(2,6-Difluorobenzyl)oxy]-2,5-dimethyl-N′-(piperidin-1-ylacetyl)pyrazolo[1,5-a]pyridine-3-carbohydrazide]",1.0
2,"Cc1cc(OCc2c(F)ccc(F)c2F)n2nc(C)c(C(=O)NCC(C)(N)C3CC3)c2c1 (racemic) [Example 13, rac-N-(2-Amino-2-cyclopropylpropyl)-2,5-dimethyl-7-[(2,3,6-trifluorobenzyl)oxy]pyrazolo[1,5-a]pyridine-3-carboxamide]",1.0
3,"COc1ccc(CC(C)(N)CNC(=O)c2c(C)nn3c(OCc4c(F)cccc4F)cc(C)cc23)cc1 (racemic) [Example 99, rac-N-[2-Amino-3-(4-methoxyphenyl)-2-methylpropyl]-7-[(2,6-difluorobenzyl)oxy]-2,5-dimethylpyrazolo[1,5-a]pyridine-3-carboxamide]",0.1
4,"Cc1cc(OCc2c(F)cccc2F)n2nc(C)c(C(=O)NCC3CNC(=O)O3)c2c1 (racemic) [Example 100, rac-7-[(2,6-Difluorobenzyl)oxy]-2,5-dimethyl-N-[(2-oxo-1,3-oxazolidin-5-yl)methyl]pyrazolo[1,5-a]pyridine-3-carboxamide]",10
5,"Cc1cc(OCc2c(F)cccc2F)n2nc(C)c(C(=O)NCC(C)(N)COc3ccc(F)c(F)c3)c2c1 (racemic) [Example 79, rac-N-[2-Amino-3-(3,4-difluorophenoxy)-2-methylpropyl]-7-[(2,6-difluorobenzyl)oxy]-2,5-dimethylpyrazolo[1,5-a]pyridine-3-carboxamide]",3.0
6,"COC(=O)C12CCC(NC(=O)c3c(C)nn4c(OCc5c(F)cccc5F)cc(C)cc34)(CC1)CC2 [Example 152, methyl 4-[({7-[(2,6-difluorobenzyl)oxy]-2,5-dimethylpyrazolo[1,5-a]pyridin-3-yl}carbonyl)amino]bicyclo[2.2.2]octane-1-carboxylate]",0.3
7,"Cc1cc(OCc2c(F)cccc2F)n2nc(C)c(C(=O)NCCCCCC#N)c2c1 [Example 63, N-(5-Cyanopentyl)-7-[(2,6-difluorobenzyl)oxy]-2,5-dimethylpyrazolo[1,5-a]pyridine-3-carboxamide]",1.0
8,"CCCC[C@H](CO)NC(=O)c1c(C)nn2c(OCc3c(F)cccc3F)cc(C)cc12 [Example 144, 7-[(2,6-Difluorobenzyl)oxy]-N-[(2R)-1-hydroxyhexan-2-yl]-2,5-dimethylpyrazolo[1,5-a]pyridine-3-carboxamide]",0.1
9,"Cc1cc(OCc2c(F)ccc(F)c2F)n2nc(C)c(C(=O)Nc3c(C(F)(F)F)n[nH]c3C)c2c1 [Example 20, 2,5-Dimethyl-N-[5-methyl-3-(trifluoromethyl)-1H-pyrazol-4-yl]-7-[(2,3,6-trifluorobenzyl)oxy]pyrazolo[1,5-a]pyridine-3-carboxamide]",0.3
10,"CCC(C)(N)CNC(=O)c1c(C)nn2c(OCc3c(F)cccc3F)cc(C)cc12 (single isomer, unassigned) [Example 2, ent-N-(2-Amino-2-methylbutyl)-7-[(2,6-difluorobenzyl)oxy]-2,5-dimethylpyrazolo[1,5-a]pyridine-3-carboxamide formate]",0.3
11,"Cc1cc(OCc2c(F)cccc2F)n2nc(C)c(C(=O)N[C@@H](CC(=O)O)CC(C)C)c2c1 [Example 38, (3R)-3-[({7-[(2,6-Difluorobenzyl)oxy]-2,5-dimethylpyrazolo[1,5-a]pyridin-3-yl}carbonyl)amino]-5-methylhexanoic Acid]",3.0
12,"Cc1cc(OCc2c(F)cccc2F)n2nc(C)c(C(=O)NC(CN)c3ccc4c(c3)OCO4)c2c1 (racemic) [Example 120, rac-N-[2-Amino-1-(1,3-benzodioxol-5-yl)ethyl]-7-[(2,6-difluorobenzyl)oxy]-2,5-dimethylpyrazolo[1,5-a]pyridine-3-carboxamide]",1.0
13,"Cc1ccc2c(c1)OC(C)(C)CC2NC(=O)c1c(C)nn2c(OCc3c(F)cccc3F)cc(C)cc12 (racemic) [Example 137, rac-7-[(2,6-Difluorobenzyl)oxy]-2,5-dimethyl-N-(2,2,7-trimethyl-3,4-dihydro-2H-chromen-4-yl)pyrazolo[1,5-a]pyridine-3-carboxamide]",1.0
14,"Cc1cc(OCc2c(F)cccc2F)n2nc(C)c(C(=O)NNC(=O)CN(C)C)c2c1 [Example 67, 7-[(2,6-Difluorobenzyl)oxy]-N′-[(dimethylamino)acetyl]-2,5-dimethylpyrazolo[1,5-a]pyridine-3-carbohydrazide]",3.0
15,"Cc1cc(OCc2c(F)cccc2F)n2nc(C)c(C(=O)NC3CC(C)Nc4ccc(C(F)(F)F)nc43)c2c1 (single isomer, unassigned; ent-7) [Example 86, ent-7-[(2,6-Difluorobenzyl)oxy]-2,5-dimethyl-N-[2-methyl-6-(trifluoromethyl)-1,2,3,4-tetrahydro-1,5-naphthyridin-4-yl]pyrazolo[1,5-a]pyridine-3-carboxamide]",3.0
16,"Cc1cc(OCc2c(F)cccc2F)n2nc(C)c(C(=O)NC34CCC(C(=O)O)(CC3)CC4)c2c1 [Example 153, 4-[({7-[(2,6-Difluorobenzyl)oxy]-2,5-dimethylpyrazolo[1,5-a]pyridin-3-yl}carbonyl)amino]bicyclo[2.2.2]octane-1-carboxylic Acid]",3.0
17,"Cc1cc(OCc2c(F)cccc2F)n2nc(C)c(C(=O)N[C@H]3c4ccccc4C[C@H]3CO)c2c1 (relative stereo) [Example 143, rel-7-[(2,6-Difluorobenzyl)oxy]-N-[(1R,2R)-2-(hydroxymethyl)-2,3-dihydro-1H-inden-1-yl]-2,5-dimethylpyrazolo[1,5-a]pyridine-3-carboxamide]",0.3
18,"Cc1cc(OCc2c(F)cccc2F)n2nc(C)c(C(=O)NCCN3CCN(C)CC3)c2c1 [Example 93, 7-[(2,6-Difluorobenzyl)oxy]-2,5-dimethyl-N-[2-(4-methylpiperazin-1-yl)ethyl]pyrazolo[1,5-a]pyridine-3-carboxamide]",10
19,"COC(=O)c1cccc(C(N)CNC(=O)c2c(C)nn3c(OCc4c(F)cccc4F)cc(C)cc23)c1 (racemic) [Example 114, rac-Methyl 3-{1-amino-2-[({7-[(2,6-difluorobenzyl)oxy]-2,5-dimethylpyrazolo[1,5-a]pyridin-3-yl}carbonyl)amino]ethyl}benzoate]",10
20,"Cc1cc(OCc2c(F)cccc2F)n2nc(C)c(C(=O)NCC(N)c3ccc4ncccc4c3)c2c1 (racemic) [Example 103, rac-N-[2-Amino-2-(quinolin-6-yl)ethyl]-7-[(2,6-difluorobenzyl)oxy]-2,5-dimethylpyrazolo[1,5-a]pyridine-3-carboxamide]",10
